Source: patent US10925876B2, “Methods for using triazolo-pyrazinyl soluble guanylate cyclase activators in fibrotic disorders” (Merck Sharp & Dohme Corp., priority 2016, dated 2021)

Molecular target: T1, sGC α1/β1 heterodimer (Homo sapiens, UniProt Q02108+Q02153)
T1 construct: expressed in transfected cells
T1 sequence (Q02108 1-690): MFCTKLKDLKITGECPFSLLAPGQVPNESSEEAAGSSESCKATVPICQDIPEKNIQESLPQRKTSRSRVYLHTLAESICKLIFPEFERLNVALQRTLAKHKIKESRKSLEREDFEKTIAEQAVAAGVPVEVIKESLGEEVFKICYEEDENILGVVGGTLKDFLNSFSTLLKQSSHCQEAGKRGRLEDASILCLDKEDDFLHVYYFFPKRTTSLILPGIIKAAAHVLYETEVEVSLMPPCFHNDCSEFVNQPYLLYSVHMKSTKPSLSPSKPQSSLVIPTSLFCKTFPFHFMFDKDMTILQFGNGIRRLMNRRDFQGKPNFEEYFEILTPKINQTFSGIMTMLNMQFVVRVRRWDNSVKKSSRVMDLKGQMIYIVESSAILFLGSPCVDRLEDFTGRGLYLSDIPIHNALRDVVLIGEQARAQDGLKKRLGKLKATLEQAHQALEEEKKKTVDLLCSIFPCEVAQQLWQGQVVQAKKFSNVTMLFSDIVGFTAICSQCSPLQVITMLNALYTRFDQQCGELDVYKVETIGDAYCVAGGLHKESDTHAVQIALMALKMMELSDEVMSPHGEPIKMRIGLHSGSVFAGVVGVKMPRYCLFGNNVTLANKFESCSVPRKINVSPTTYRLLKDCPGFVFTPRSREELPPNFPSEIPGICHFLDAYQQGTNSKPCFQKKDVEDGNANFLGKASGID
T1 sequence (Q02153 1-619): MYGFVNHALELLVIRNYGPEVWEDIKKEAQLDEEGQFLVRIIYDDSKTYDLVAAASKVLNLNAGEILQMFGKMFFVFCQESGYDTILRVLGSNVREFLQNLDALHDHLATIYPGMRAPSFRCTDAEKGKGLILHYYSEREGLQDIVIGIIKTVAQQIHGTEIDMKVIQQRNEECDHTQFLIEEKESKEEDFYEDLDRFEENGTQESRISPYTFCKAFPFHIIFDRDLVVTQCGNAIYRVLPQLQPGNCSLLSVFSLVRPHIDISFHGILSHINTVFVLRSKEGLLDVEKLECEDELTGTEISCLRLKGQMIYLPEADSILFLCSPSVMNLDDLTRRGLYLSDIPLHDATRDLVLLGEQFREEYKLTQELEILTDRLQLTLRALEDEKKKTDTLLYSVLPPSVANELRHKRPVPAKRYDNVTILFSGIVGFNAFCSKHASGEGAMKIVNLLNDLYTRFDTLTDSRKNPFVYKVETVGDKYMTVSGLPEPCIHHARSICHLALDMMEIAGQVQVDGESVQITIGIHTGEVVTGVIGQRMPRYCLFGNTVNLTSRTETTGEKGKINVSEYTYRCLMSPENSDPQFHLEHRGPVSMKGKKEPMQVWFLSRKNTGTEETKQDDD
Experiment: Cell-Based sGC Functional Assay (CASA Assay), cGMP generation in CHO-K1/sGC cells
Conditions: maximum cGMP production of Compound A set to 100% activation, read-out: % Act. (percent activation relative to Compound A)
Excerpt: sGC is a heme-containing enzyme that converts GTP to secondary messenger cGMP. Increases in cGMP levels affect several physiological processes including vasorelaxation through multiple downstream pathways. […] Heme-dependent activators (HDAs) preferentially activate sGC containing a ferrous heme group. To determine the effect of sGC activators on enzyme activity, the CASA assay was developed to monitor the generation of cGMP in a cell line that stably expresses the heterodimeric sGC protein.
A CHO-K1 cell line stably expressing the sGC α1/β1 heterodimer was generated using a standard transfection protocol. CHO-K1 cells were transfected with plasmids pIREShyghsGCα1 and pIRESneo-hsGCβ1 simultaneously using FUGENE reagent. Clones that stably express both subunits were selected with hygromycin and neomycin for ˜2 weeks. Clone #7 was chosen for the assay and was designated CHO-K1/sGC. CHO-K1/sGC cells were maintained in F-K12 medium containing 10% heat-inactivated Fetal Bovine Serum (FBS), 100 μg/mL penicillin/streptomycin, 0.5 mg/mL hygromycin and 0.25 mg/mL G418. The cells were then cryopreserved in LN2. On the day of the assay, cells thawed and resuspended in EBSS Assay Buffer (Sigma, E3024) supplemented with 5 mM MgCl2, 10 mM HEPES (4-(2-hydroxyethyl)piperazine-1-ethanesulfonic acid) and 0.05% BSA (bovine serum albumin) (EAB) and cell density was then adjusted to 4×10^5/mL with EAB. IBMX (3-isobutyl-1-methylxanthin, 0.5 mM) was added to inhibit degradation of cGMP. Compounds were diluted from DMSO stock solutions and added to the assay at a final DMSO concentration of 2.5%. Cells were incubated with compounds in the presence and absence of 1 μM of Diethylenetriamine/nitric oxide adduct (DETA-NO; Sigma, 17018) for 1 hr at 37° C. At the end of the incubation period, the reaction was terminated and the cells were lysed with the detection reagents from Cisbio Kits. The level of intracellular cGMP was determined using an HTRF-based assay kit (CisBio, 62GM2PEC), which detects the displacement of a fluorescence labeled cGMP from its specific antibody. The cGMP produced by test compounds was directly compared to the maximum cGMP production (this value was set to equal 100% activation.) of the published sGC-HDA Compound A:
[drawing 298] (Example 1 in WO 2010/065275, published Jun. 10, 2010). The test compounds' activities were then expressed as a percentage of Compound A, the standard in every experiment. This percent activation was calculated either in the presence or absence of DETA-NO which was then plotted. IP and maximum fold induction was derived using ADA analysis software for 4P fit.

Structure (SMILES)	Emax [%]
Cc1cnc(C2(C3CC3)C(=O)Nc3nc(-c4cn5ncnc5c(CCC(F)(F)C(F)(F)F)n4)nc(N)c32)cn1 (racemic) [Example 21B, 4-amino-5-cyclopropyl-5-(5-methylpyrazin-2-yl)-2-(8-(3,3,4,4,4-pentafluorobutyl)-[1,2,4]triazolo[1,5-a]pyrazin-6-yl)-5H-pyrrolo[2,3-d]pyrimidin-6(7H)-one]	99
Cc1ccc(C2(C3CC3)C(=O)Nc3nc(-c4cn5ncnc5c(CCCC(F)(F)F)n4)nc(N)c32)nc1 (racemic) [Example 47B, 4-amino-5-cyclopropyl-5-(5-methylpyridin-2-yl)-2-(8-(4,4,4-trifluorobutyl)-[1,2,4]triazolo[1,5-a]pyrazin-6-yl)-5H-pyrrolo[2,3-d]pyrimidin-6(7H)-one]	114
CCCCc1nc(-c2nc(N)c3c(n2)NC(=O)C3(c2ccc(C)cn2)C2CC2)cn2ncnc12 (racemic) [Example 72B, 4-amino-2-(8-butyl-[1,2,4]triazolo[1,5-a]pyrazin-6-yl)-5-cyclopropyl-5-(5-methylpyridin-2-yl)-5H-pyrrolo[2,3-d]pyrimidin-6(7H)-one]	82
Cc1nnc(C2(C)C(=O)Nc3nc(-c4cn5ncnc5c(CCC(F)(F)C(F)(F)F)n4)nc(N)c32)o1 (single isomer, unassigned) [Example 97B, 4-Amino-5-methyl-5-(5-methyl-1,3,4-oxadiazol-2-yl)-2-(8-(3,3,4,4,4-pentafluorobutyl)-[1,2,4]triazolo[1,5-a]pyrazin-6-yl)-5H-pyrrolo[2,3-d]pyrimidin-6(7H)-one]	106
Nc1nc(-c2cn3ncnc3c(CCCC(F)(F)F)n2)nc2c1C(c1ncc(C(F)(F)F)cn1)(C1CC1)C(=O)N2 (single isomer, unassigned) [Example 180B, 4-amino-5-cyclopropyl-2-(8-(4,4,4-trifluorobutyl)-[1,2,4]triazolo[1,5-a]pyrazin-6-yl)-5-(5-(trifluoromethyl)pyrimidin-2-yl)-5,7-dihydro-6H-pyrrolo[2,3-d]pyrimidin-6-one]	97

Continued, values first:

Emax [%]	Structure (SMILES)
77	CC(F)(F)c1ccc(C2(C)C(=O)Nc3nc(-c4cn5ncnc5c(CCC(F)(F)C(F)(F)F)n4)nc(N)c32)cn1 (racemic) [Example 16B, 4-amino-5-(6-(1,1-difluoroethyl)pyridin-3-yl)-5-methyl-2-(8-(3,3,4,4,4-pentafluorobutyl)-[1,2,4]triazolo[1,5-a]pyrazin-6-yl)-5H-pyrrolo[2,3-d]pyrimidin-6(7H)-one]
156	CC(F)(F)c1ccc(C2(C)C(=O)Nc3nc(-c4cn5ncnc5c(CCCC(F)(F)F)n4)nc(N)c32)cn1 (racemic) [Example 45B, 4-amino-5-(6-(1,1-difluoroethyl)pyridin-3-yl)-5-methyl-2-(8-(4,4,4-trifluorobutyl)-[1,2,4]triazolo[1,5-a]pyrazin-6-yl)-5H-pyrrolo[2,3-d]pyrimidin-6(7H)-one]
127	Cc1nc(C2(C)C(=O)Nc3nc(-c4cn5ncnc5c(CCCC(F)(F)F)n4)nc(N)c32)ccc1C(F)(F)F (racemic) [Example 49B, 4-amino-5-methyl-5-(6-methyl-5-(trifluoromethyl)pyridin-2-yl)-2-(8-(4,4,4-trifluorobutyl)-[1,2,4]triazolo[1,5-a]pyrazin-6-yl)-5H-pyrrolo[2,3-d]pyrimidin-6(7H)-one]
144	CC1(c2ncc(C(F)(F)F)cn2)C(=O)Nc2nc(-c3cn4ncnc4c(CCCC(F)(F)F)n3)nc(N)c21 (racemic) [Example 51B, 4-amino-5-methyl-2-(8-(4,4,4-trifluorobutyl)-[1,2,4]triazolo[1,5-a]pyrazin-6-yl)-5-(5-(trifluoromethyl)pyrimidin-2-yl)-5H-pyrrolo[2,3-d]pyrimidin-6(7H)-one]
147	CC1(c2ccc(Cl)c(F)c2)C(=O)Nc2nc(-c3cn4ncnc4c(CCC(F)(F)C(F)(F)F)n3)nc(N)c21 (stereo not shown) [Example 5B, 4-amino-5-(4-chloro-3-fluorophenyl)-5-methyl-2-(8-(3,3,4,4,4-pentafluorobutyl)-[1,2,4]triazolo[1,5-a]pyrazin-6-yl)-5H-pyrrolo[2,3-d]pyrimidin-6(7H)-one]
